In the assay the target is T1, human RORγ-LBD (Homo sapiens, UniProt P51449).
T1 construct: made in house; host or cells: E. coli (BL-21)
T1 sequence (P51449 262-518): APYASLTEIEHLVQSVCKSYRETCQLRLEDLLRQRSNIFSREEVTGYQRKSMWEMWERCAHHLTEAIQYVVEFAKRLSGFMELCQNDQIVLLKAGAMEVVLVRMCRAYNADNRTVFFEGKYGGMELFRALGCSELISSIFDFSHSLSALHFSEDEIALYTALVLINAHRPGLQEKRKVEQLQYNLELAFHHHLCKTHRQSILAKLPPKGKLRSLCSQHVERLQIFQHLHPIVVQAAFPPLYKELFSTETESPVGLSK
Kind of assay: ROR gamma coactivator peptide recruitment Alphascreen assay (RORγ-LBD binding to GRIP1 coactivator peptide). It counts as biochemical. The settings on record: 5 nM human RORγ-LBD, 30 nM 7-β-hydroxycholesterol, 50 nM biotinylated GRIP1 coactivator peptide, overnight incubation at room temperature; read-out: result (pIC50, RORγ coactivator peptide recruitment Alphascreen assay) (converted). In short, it runs like this:
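Alphascreen proximity read-out after overnight room-temperature incubation, yielding pIC50 from 1-in-2 compound series (2.5% DMSO final). Mixture: 50 nM biotin-GRIP1 peptide, 30 nM 7-β-hydroxycholesterol agonist, 5 nM recombinant 6×His:Flag human RORγ-LBD (aa 262-518), 50 mM HEPES pH 7.4.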

As for `C[C@@H]1C[C@@H](n2ncc(C(=O)N(CC(=O)c3c(Cl)cncc3Cl)CC3(C)CCC3)c2C(F)(F)F)CC[C@@H]1C(=O)O` [Example 782, (1S,2R,4S)-4-(4-((2-(3,5-dichloro-4-pyridinyl)-2-oxoethyl)((1-methylcyclobutyl)methyl)carbamoyl)-5-(trifluoromethyl)-1H-pyrazol-1-yl)-2-methylcyclohexanecarboxylic acid], the IC50 was 3.98 nM. Consider `Cc1cc(Cl)c(C(=O)CN(C[C@@H]2CCC(C)(C)O2)C(=O)c2cnn([C@H]3CC[C@](C)(C(=O)O)CC3)c2C(F)(F)F)c(Cl)c1` [Example 783, trans-4-(4-((2-(2,6-dichloro-4-methylphenyl)-2-oxoethyl)(((2S)-5,5-dimethyltetrahydro-2-furanyl)methyl)carbamoyl)-5-(trifluoromethyl)-1H-pyrazol-1-yl)-1-methylcyclohexanecarboxylic acid], for which the IC50 is 3.89 nM. `C[C@H](C(=O)O)[C@H]1CC[C@@H](n2ncc(C(=O)N(CC(=O)c3c(Cl)cncc3Cl)Cc3cc(F)cc(F)c3)c2C(F)(F)F)CC1` [Example 786, 2-(cis-4-(4-((2-(3,5-dichloro-4-pyridinyl)-2-oxoethyl)(3,5-difluorobenzyl)carbamoyl)-5-(trifluoromethyl)-1H-pyrazol-1-yl)cyclohexyl)propanoic acid]: the IC50 is 34.7 nM. `C[C@@H]1C[C@@H](n2ncc(C(=O)N(CC(=O)c3c(Cl)cccc3Cl)[C@H]3C[C@@H]4[C@H](C3)C4(C)C)c2C(F)(F)F)CC[C@@H]1C(=O)O` [Example 787, (1S,2R,4S)-4-(4-((2-(2,6-dichlorophenyl)-2-oxoethyl)((1R,3r,5S)-6,6-dimethylbicyclo[3.1.0]hex-3-yl)carbamoyl)-5-(trifluoromethyl)-1H-pyrazol-1-yl)-2-methylcyclohexanecarboxylic acid]: the IC50 is 2.09 nM.

`C[C@@H]1C[C@@H](n2ncc(C(=O)N(CC(=O)c3c(Cl)cncc3Cl)CC3(C)CC3)c2C(F)(F)F)CC[C@@H]1C(=O)O` [Example 788, (1S,2R,4S)-4-(4-((2-(3,5-dichloro-4-pyridinyl)-2-oxoethyl)((1-methylcyclopropyl)methyl)carbamoyl)-5-(trifluoromethyl)-1H-pyrazol-1-yl)-2-methylcyclohexanecarboxylic acid]: the IC50 was 17.4 nM. For `C[C@]1(CC(=O)O)CC[C@H](n2ncc(C(=O)N(CC(=O)c3c(Cl)cncc3Cl)Cc3cc(F)cc(F)c3)c2C(F)(F)F)CC1` [Example 789, (trans-4-(4-((2-(3,5-dichloro-4-pyridinyl)-2-oxoethyl)(3,5-difluorobenzyl)carbamoyl)-5-(trifluoromethyl)-1H-pyrazol-1-yl)-1-methylcyclohexyl)acetic acid], the IC50 is 2.09 nM. As for `C[C@]1(CC(=O)O)CC[C@@H](n2ncc(C(=O)N(CC(=O)c3c(Cl)cncc3Cl)Cc3cc(F)cc(F)c3)c2C(F)(F)F)CC1` [Example 790, (cis-4-(4-((2-(3,5-dichloro-4-pyridinyl)-2-oxoethyl)(3,5-difluorobenzyl)carbamoyl)-5-(trifluoromethyl)-1H-pyrazol-1-yl)-1-methylcyclohexyl)acetic acid], the figure is 34.7 nM; as for `CC(C)(C)CN(CC(=O)c1c(Cl)cncc1Cl)C(=O)c1cnn([C@H]2CC[C@](C)(CC(=O)O)CC2)c1C(F)(F)F` [Example 791, (trans-4-(4-((2-(3,5-dichloro-4-pyridinyl)-2-oxoethyl)(2,2-dimethylpropyl)carbamoyl)-5-(trifluoromethyl)-1H-pyrazol-1-yl)-1-methylcyclohexyl)acetic acid], 5.25 nM; as for `CC(C)(C)CN(CC(=O)c1c(Cl)cncc1Cl)C(=O)c1cnn([C@H]2CC[C@@](C)(CC(=O)O)CC2)c1C(F)(F)F` [Example 792, (cis-4-(4-((2-(3,5-dichloro-4-pyridinyl)-2-oxoethyl)(2,2-dimethylpropyl)carbamoyl)-5-(trifluoromethyl)-1H-pyrazol-1-yl)-1-methylcyclohexyl)acetic acid], 102 nM. As to `C[C@@H]1C[C@H](n2ncc(C(=O)N(CC(=O)c3c(Cl)cncc3Cl)CC(C)(C)C)c2C(F)(F)F)CC[C@H]1C(=O)O` [Example 793, (1R,2R,4R)-4-(4-((2-(3,5-dichloro-4-pyridinyl)-2-oxoethyl)(2,2-dimethylpropyl)carbamoyl)-5-(trifluoromethyl)-1H-pyrazol-1-yl)-2-methylcyclohexanecarboxylic acid], the IC50 is 25.1 nM. The result for `C[C@]1(C(=O)O)CC[C@H](n2ncc(C(=O)N(CC(=O)c3c(Cl)ccc(F)c3Cl)CC3(C(F)(F)F)CC3)c2C(F)(F)F)CC1` [Example 798, (1r,4r)-4-(4-((2-(2,6-dichloro-3-fluorophenyl)-2-oxoethyl)((1-(trifluoromethyl)cyclopropyl)methyl)carbamoyl)-5-(trifluoromethyl)-1H-pyrazol-1-yl)-1-methylcyclohexanecarboxylic acid] reads 3.16 nM; that for `C[C@]1(C(=O)O)CC[C@H](n2ncc(C(=O)N(CC(=O)c3c(Cl)cncc3Cl)CC3(C(F)(F)F)CCC3)c2C(F)(F)F)CC1` [Example 799, trans-4-(4-((2-(3,5-dichloro-4-pyridinyl)-2-oxoethyl)((1-(trifluoromethyl)cyclobutyl)methyl)carbamoyl)-5-(trifluoromethyl)-1H-pyrazol-1-yl)-1-methylcyclohexanecarboxylic acid], 3.89 nM. Consider `C[C@]1(C(=O)O)CC[C@H](n2ncc(C(=O)N(CC(=O)c3c(Cl)cncc3Cl)CC3(CF)CCC3)c2C(F)(F)F)CC1` [Example 800, trans-4-(4-((2-(3,5-dichloro-4-pyridinyl)-2-oxoethyl)((1-(fluoromethyl)cyclobutyl)methyl)carbamoyl)-5-(trifluoromethyl)-1H-pyrazol-1-yl)-1-methylcyclohexanecarboxylic acid], for which the IC50 was 3.02 nM.

As for `Cc1cc(Cl)c(C(=O)CN(CC2CCCCC2)C(=O)c2cnn([C@H]3CC[C@](C)(C(=O)O)CC3)c2C(F)(F)F)c(Cl)n1` [Example 801, trans-4-(4-((cyclohexylmethyl)(2-(2,4-dichloro-6-methyl-3-pyridinyl)-2-oxoethyl)carbamoyl)-5-(trifluoromethyl)-1H-pyrazol-1-yl)-1-methylcyclohexanecarboxylic acid], the IC50 was 8.51 nM.

On to `C[C@@H]1C[C@@H](n2ncc(C(=O)N(CC(=O)c3c(Cl)cncc3Cl)CC(C)(C)C(F)(F)F)c2C(F)(F)F)CC[C@@H]1C(=O)O` [Example 802, (1S,2R,4S)-4-(4-((2-(3,5-dichloro-4-pyridinyl)-2-oxoethyl)(3,3,3-trifluoro-2,2-dimethylpropyl)carbamoyl)-5-(trifluoromethyl)-1H-pyrazol-1-yl)-2-methylcyclohexanecarboxylic acid], for which the IC50 is 3.02 nM. The result for `CC(C)CCN(CC(=O)c1c(Cl)cncc1Cl)C(=O)c1cnn([C@H]2CC[C@H](C(=O)O)[C@H](C)C2)c1C(F)(F)F` [Example 803, (1S,2R,4S)-4-(4-((2-(3,5-dichloro-4-pyridinyl)-2-oxoethyl)(3-methylbutyl)carbamoyl)-5-(trifluoromethyl)-1H-pyrazol-1-yl)-2-methylcyclohexanecarboxylic acid] reads 63.1 nM; that for `CC(C)CCN(CC(=O)c1c(Cl)cccc1Cl)C(=O)c1cnn([C@H]2CC[C@H](C(=O)O)[C@H](C)C2)c1C(F)(F)F` [Example 804, (1S,2R,4S)-4-(4-((2-(2,6-dichlorophenyl)-2-oxoethyl)(3-methylbutyl)carbamoyl)-5-(trifluoromethyl)-1H-pyrazol-1-yl)-2-methylcyclohexanecarboxylic acid], 53.7 nM; that for `Cc1cc(F)c(C(=O)CN(C[C@]2(C)CCCO2)C(=O)c2cnn([C@H]3CC[C@](C)(C(=O)O)CC3)c2C(F)(F)F)c(Cl)c1` [Example 805, trans-4-(4-((2-(2-chloro-6-fluoro-4-methylphenyl)-2-oxoethyl)(((2S)-2-methyltetrahydro-2-furanyl)methyl)carbamoyl)-5-(trifluoromethyl)-1H-pyrazol-1-yl)-1-methylcyclohexanecarboxylic acid], 11.2 nM.

On to `Cc1cc(F)c(C(=O)CN(C[C@@]2(C)CCCO2)C(=O)c2cnn([C@H]3CC[C@](C)(C(=O)O)CC3)c2C(F)(F)F)c(Cl)c1` [Example 806, trans-4-(4-((2-(2-chloro-6-fluoro-4-methylphenyl)-2-oxoethyl)(((2R)-2-methyltetrahydro-2-furanyl)methyl)carbamoyl)-5-(trifluoromethyl)-1H-pyrazol-1-yl)-1-methylcyclohexanecarboxylic acid], for which the IC50 was 102 nM.

In the case of `C[C@]1(C(=O)O)CC[C@H](n2ncc(C(=O)N(CC(=O)c3c(Cl)cncc3Cl)C[C@H]3CCCO3)c2C(F)(F)F)CC1` [Example 808, trans-4-(4-((2-(3,5-dichloro-4-pyridinyl)-2-oxoethyl)((2R)-tetrahydro-2-furanylmethyl)carbamoyl)-5-(trifluoromethyl)-1H-pyrazol-1-yl)-1-methylcyclohexanecarboxylic acid], the IC50 is 186 nM. As to `C[C@@H]1C[C@@H](n2ncc(C(=O)N3CC4(CC=CC4)C[C@@H]3Cc3c(Cl)cncc3Cl)c2C(F)(F)F)CC[C@@H]1C(=O)O` [Example 809, (1S,2R,4S)-4-(4-(((3R)-3-((3,5-dichloro-4-pyridinyl)methyl)-2-azaspiro[4.4]non-7-en-2-yl)carbonyl)-5-(trifluoromethyl)-1H-pyrazol-1-yl)-2-methylcyclohexanecarboxylic acid], the IC50 was 17.8 nM.
